# Source: patent US7396837B2, “Antitumoral analogs of lamellarins” (Pharma Mar, S.A.U., priority 2002, dated 2008)
# Columns and labels:
# Type in all cases: cell-based
# PANC-1 = assay: SRB colorimetric cell growth inhibition assay, PANC-1; conditions: Homo sapiens
# Summary of the method: (§1)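 Sulforhodamine B colorimetric readout measured cell growth and viability after continuous compound exposure of human cancer cell lines in 96-well plates. Triplicate wells gave mean ± SD, from which growth inhibition (GI), cytostatic total growth inhibition (TGI) and cytotoxic cell killing (LC) were calculated.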
# LoVo-Dox = assay: SRB colorimetric cell growth inhibition assay, LoVo-Dox (MDR); conditions: Homo sapiens, LOVO-DOX
# Summary of the method: as §1
# LNCaP = assay: SRB colorimetric cell growth inhibition assay, LNCaP; conditions: Homo sapiens, LNCaP, LN-caP
# Summary of the method: as §1
# IGROV = assay: SRB colorimetric cell growth inhibition assay, IGROV; conditions: Homo sapiens, IGROV
# Summary of the method: as §1
# SK-MEL-28 = assay: SRB colorimetric cell growth inhibition assay, SK-MEL-28; conditions: Homo sapiens, SK-MEL-28, MEL-28
# Summary of the method: as §1
# SKOV-3 = assay: SRB colorimetric cell growth inhibition assay, SKOV-3; conditions: Homo sapiens
# Summary of the method: (§2)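 Growth inhibition (GI), total growth inhibition (TGI, cytostatic) and lethal concentration (LC, cytotoxic) come from an SRB-based colorimetric measure of growth and viability. Data are triplicate-well means ± SD.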
# SK-BR-3 = assay: SRB colorimetric cell growth inhibition assay, SK-BR-3; conditions: Homo sapiens
# Summary of the method: as §1
# K-562 = assay: SRB colorimetric cell growth inhibition assay, K-562; conditions: Homo sapiens, K562, K-562
# Summary of the method: as §1
# IGROV-ET = assay: SRB colorimetric cell growth inhibition assay, IGROV-ET (ET-743 resistant); conditions: Homo sapiens, IGROV-ET
# Summary of the method: as §1
# LoVo = assay: SRB colorimetric cell growth inhibition assay, LoVo; conditions: Homo sapiens
# Summary of the method: as §1
# HT-29 = assay: SRB colorimetric cell growth inhibition assay, HT-29; conditions: Homo sapiens
# Summary of the method: as §1
# DU-145 = assay: SRB colorimetric cell growth inhibition assay, DU-145; conditions: Homo sapiens
# Summary of the method: as §1
# A-549 = assay: SRB colorimetric cell growth inhibition assay, A-549; conditions: Homo sapiens, A549, A-549
# Summary of the method: as §1
# H-MEC-1 = assay: SRB colorimetric cell growth inhibition assay, H-MEC-1; conditions: Homo sapiens, HMEC-1, H-MEC-1
# Summary of the method: as §2
# [1] = as above; conditions: human; H-MEC-1; cell killing (cytotoxic effect); read-out: LC50 H-MEC-1
# Summary of the method: as §2
smiles,measurement,setting,value
COc1cc(-c2c3n(c4c(=O)oc5cc(OC(=O)[C@H](Cc6c[nH]c7ccccc67)NC(=O)OC(C)(C)C)c(OC)cc5c24)CCc2cc(OC(=O)[C@H](Cc4c[nH]c5ccccc45)NC(=O)OC(C)(C)C)c(OC)cc2-3)ccc1OC(=O)[C@H](Cc1c[nH]c2ccccc12)NC(=O)OC(C)(C)C [Compound 29],CC50,"PANC-1; PANC-1, PANC-1, LC=cell killing (cytotoxic effect), read-out: LC50 PANC-1",7.35 µM
same,IC (TGI),"PANC-1; PANC-1, PANC-1, TGI=total growth inhibition (cytostatic effect), read-out: TGI PANC-1",4.23 µM
same,GI50,"PANC-1; PANC-1, GI=growth inhibition, read-out: GI50 PANC-1",978 nM
same,GI50,"LoVo-Dox; GI=growth inhibition, read-out: GI50 LOVO-DOX",7.35 µM
same,CC50,"LoVo-Dox; LC=cell killing (cytotoxic effect), read-out: LC50 LOVO-DOX",7.35 µM
same,IC (TGI),"LoVo-Dox; TGI=total growth inhibition (cytostatic effect), read-out: TGI LOVO-DOX",7.35 µM
same,GI50,"LNCaP; GI=growth inhibition, read-out: GI50 LN-caP",70.4 nM
same,CC50,"LNCaP; cell killing (cytotoxic effect), read-out: LC50 LN-caP",396 nM
same,IC (TGI),"LNCaP; total growth inhibition (cytostatic effect), read-out: TGI LN-caP",0.169 µM
same,CC50,"IGROV; cell killing (cytotoxic effect), read-out: LC50 IGROV",7.35 µM
same,GI50,"IGROV; GI=growth inhibition, read-out: GI50 IGROV",367 nM
same,IC (TGI),"IGROV; total growth inhibition (cytostatic effect), read-out: TGI IGROV",1.66 µM
same,GI50,"SK-MEL-28; GI=growth inhibition, read-out: GI50 MEL-28",1550 nM
same,CC50,"SK-MEL-28; cell killing (cytotoxic effect), read-out: LC50 MEL-28",6.45 µM
same,IC (TGI),"SK-MEL-28; total growth inhibition (cytostatic effect), read-out: TGI MEL-28",3.17 µM
same,GI50,"SKOV-3; SK-OV-3, SKOV-3, GI=growth inhibition, read-out: GI50 SKOV-3",1790 nM
same,LC50 (concentration causing 50% net cell killing),"SKOV-3; SK-OV-3, SKOV-3, cell killing (cytotoxic effect), read-out: LC50 SKOV-3",7.35 µM
same,IC (TGI),"SKOV-3; SK-OV-3, SKOV-3, total growth inhibition (cytostatic effect), read-out: TGI SKOV-3",3.9 µM
same,CC50,"SK-BR-3; SK-BR-3, SK-BR-3, cell killing (cytotoxic effect), read-out: LC50 SK-BR-3",7.03 µM
same,GI50,"SK-BR-3; SK-BR-3, GI=growth inhibition, read-out: GI50 SK-BR-3",242 nM
same,IC (TGI),"SK-BR-3; SK-BR-3, total growth inhibition (cytostatic effect), read-out: TGI SK-BR-3",0.525 µM
same,GI50,"K-562; GI=growth inhibition, read-out: GI50 K-562",481 nM
same,CC50,"K-562; LC=cell killing (cytotoxic effect), read-out: LC50 K-562",7.35 µM
same,IC (TGI),"K-562; TGI=total growth inhibition (cytostatic effect), read-out: TGI K-562",3.46 µM
same,GI50,"IGROV-ET; GI=growth inhibition, read-out: GI50 IGROV-ET",5.65 µM
same,CC50,"IGROV-ET; cell killing (cytotoxic effect), read-out: LC50 IGROV-ET",7.35 µM
same,IC (TGI),"IGROV-ET; total growth inhibition (cytostatic effect), read-out: TGI IGROV-ET",7.35 µM
same,CC50,"LoVo; LoVo, LC=cell killing (cytotoxic effect), read-out: LC50 LOVO",7.35 µM
same,GI50,"LoVo; LOVO, GI=growth inhibition, read-out: GI50 LOVO",2910 nM
same,IC (TGI),"LoVo; LOVO, TGI=total growth inhibition (cytostatic effect), read-out: TGI LOVO",7.35 µM
same,CC50,"HT-29; HT-29, HT-29, LC=cell killing (cytotoxic effect), read-out: LC50 HT-29",7.35 µM
same,GI50,"HT-29; HT-29, GI=growth inhibition, read-out: GI50 HT-29",1840 nM
same,IC (TGI),"HT-29; HT-29, TGI=total growth inhibition (cytostatic effect), read-out: TGI HT-29",5.08 µM
same,CC50,"DU-145; DU-145, DU-145, cell killing (cytotoxic effect), read-out: LC50 DU-145",3.9 µM
same,GI50,"DU-145; DU-145, GI=growth inhibition, read-out: GI50 DU-145",198 nM
same,IC (TGI),"DU-145; DU-145, total growth inhibition (cytostatic effect), read-out: TGI DU-145",0.44 µM
same,GI50,"A-549; GI=growth inhibition, read-out: GI50 A-549",1730 nM
same,CC50,"A-549; LC=cell killing (cytotoxic effect), read-out: LC50 A-549",7.35 µM
same,IC (TGI),"A-549; TGI=total growth inhibition (cytostatic effect), read-out: TGI A-549",3.63 µM
same,GI50,"H-MEC-1; GI=growth inhibition, read-out: GI50 H-MEC-1",24.2 nM
same,IC (TGI),"H-MEC-1; total growth inhibition (cytostatic effect), read-out: TGI H-MEC-1",0.0526 µM
same,LC50 (concentration giving 50% net cell killing),[1],290 nM
